Assay results taken from patent publication US5583147A, “Amides for the treatment of atherosclerosis” (The Dupont Merck Pharmaceutical Company, priority 1994, dated 1996).

Molecular target: T1, Acyl-CoA: Cholesterol Acyltransferase (ACAT) (Rattus norvegicus, UniProt Q7TQM4)
T1 construct: centrifuged at 105,000×g for 1 hour to pellet the microsomes; from tissue; host or cells: liver microsomes of male Sprague Dawley rats
T1 sequence (Q7TQM4 1-524): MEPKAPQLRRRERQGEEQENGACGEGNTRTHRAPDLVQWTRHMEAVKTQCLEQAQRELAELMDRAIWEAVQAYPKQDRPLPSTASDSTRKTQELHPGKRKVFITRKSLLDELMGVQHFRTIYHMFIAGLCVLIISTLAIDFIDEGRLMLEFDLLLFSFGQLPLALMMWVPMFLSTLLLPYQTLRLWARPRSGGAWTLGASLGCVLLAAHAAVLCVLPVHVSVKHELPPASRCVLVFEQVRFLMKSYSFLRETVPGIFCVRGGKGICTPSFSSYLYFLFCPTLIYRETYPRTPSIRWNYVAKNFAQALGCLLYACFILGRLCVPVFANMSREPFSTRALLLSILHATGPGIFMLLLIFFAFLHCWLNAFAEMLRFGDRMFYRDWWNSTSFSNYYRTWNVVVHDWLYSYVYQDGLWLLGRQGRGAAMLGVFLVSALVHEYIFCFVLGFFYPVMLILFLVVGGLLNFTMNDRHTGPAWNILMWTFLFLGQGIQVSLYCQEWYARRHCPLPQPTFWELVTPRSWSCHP
Experiment: Inhibition of Acyl-CoA: Cholesterol Acyltransferase (ACAT) in Hepatic Microsomes (In Vitro Assay)
Assay type: biochemical, rat (male Sprague Dawley)
Conditions: 75 μM 14C-oleoyl-CoA, pH 7.4, 37° C., 10 min, read-out: ACAT Inhibitory Activity (In Vitro) (IC50)
Description: A. Assay of the Inhibition of Acyl-CoA: Cholesterol Acyltransferase (ACAT) in Hepatic Microsomes (In Vitro Assay)
The ability of the compounds to inhibit ACAT, the enzyme responsible for the intracellular synthesis of cholesteryl esters, was tested as follows. Male Sprague Dawley rats weighing 150-300 g, were fed rat chow ad libitum. The animals were fasted for twenty-four hours prior to being euthanized by CO2. The livers were perfused in situ with 50 ml of cold 0.25 sucrose, excised, and homogenized in three volumes of 0.1M phosphate buffer, pH 7.4, that contained 0.5 mM EDTA (ethylenediamine-tetraacetic acid), 1.0 mM glutathione, 0.25M sucrose and […] leupeptin. Microsomes were obtained by differential centrifugation; the supernatant from an initial spin at 15,000×g for 15 minutes was centrifuged at 105,000×g for 1 hour to pellet the microsomes. The microsomes were suspended in homogenization buffer, reisolated by centrifugation, and stored at -70° C. Microsomes were used within one month of preparation.
The control assay in a final volume of 200 μl consisted of 200 μg of microsomal protein, 75 μM ^14 C-oleoyl-CoA (10,000 dpm/nmol) in 0.1M phosphate, pH 7.4, that contained 1 mM glutathione. Compounds were added in 5 μl of DMSO (dimethyl sulfoxide) and additional controls were run with DMSO only. All components, except the oleoyl-CoA, were preincubated for 15 min. at 37° C. prior to the initiation of the reaction by the addition of oleoyl-CoA. The assay was terminated after 10 min by the addition of 4 ml of chloroform:methanol (2:1, v/v). 20,000 dpm of ^3 H-cholesteryl oleate and 10 μg of unlabeled cholesteryl oleate and oleic acid were added as an internal standard and carriers, respectively. After allowing 10 min. for lipid extraction, the samples were centrifuged at 1,000×g for 10 min to separate the solvent layers. The chloroform layer containing the neutral lipids was spotted onto a Baker SI250-Pa silica gel TLC plate and the plate developed using a hexane:diethyl ether:acetic acid (170:30:1) v/v/v) mobile phase. The lipids were visualized by their interaction with iodine vapor and the cholesteryl ester spot was scraped into a scintillation vial and counted. The specific activity of ACAT in the control incubation averaged 260 pmol/min/mg microsomal protein. The data obtained are expressed as the concentration at which ACAT activity is inhibited by 50% (IC50).

SMILES | IC50
CCCCCCSC(C(=O)Nc1c(SC)cc(C)nc1SC)c1ccccc1 (single isomer, unassigned) [Example 41, N-[2,4-bis(methylthio)-6-methyl-3-pyridyl]-L-(+)-α-hexylthio-phenylacetamide] | < 1000 nM
CCCCCCSC(C(=O)Nc1c(C(C)C)cccc1C(C)C)c1ccccc1 (single isomer, unassigned) [Example 42, N-(2,6-diisopropyl-phenyl)-D-(-)-α-hexylthio-phenylacetamide] | < 1000 nM
CSc1cc(C)nc(SC)c1NC(=O)C(SCc1ccccc1)c1ccccc1 (single isomer, unassigned) [Example 46, N-[2,4-bis(methylthio)-6-methyl-3-pyridyl]-D-(-)-α-benzylthio-phenylacetamide] | < 1000 nM
CSc1cc(C)nc(SC)c1NC(=O)C(SCc1ccccc1)c1ccccc1 (single isomer, unassigned) [Example 47, N-[2,4-bis(methylthio)-6-methyl-3-pyridyl]-L-(+)-α-benzylthio-phenylacetamide] | < 1000 nM
CC(C)c1cccc(C(C)C)c1NC(=O)C(SCc1ccccc1)c1ccccc1 (single isomer, unassigned) [Example 48, N-(2,6-diisopropyl-phenyl)-D-(-)-α-benzylthio-phenylacetamide] | < 1000 nM
CCSC(C(=O)Nc1c(SC)cc(C)nc1SC)c1ccccc1 (single isomer, unassigned) [Example 49, N-[2,4-bis(methylthio)-6-methyl-3-pyridyl]-D-(-)-α-ethylthio-phenylacetamide] | < 1000 nM
CCSC(C(=O)Nc1c(SC)cc(C)nc1SC)c1ccccc1 (single isomer, unassigned) [Example 50, N-[2,4-bis(methylthio)-6-methyl-3-pyridyl]-L-(+)-α-ethylthio-phenylacetamide] | < 1000 nM
CSc1cc(C)nc(SC)c1NC(=O)C(Sc1ccccc1)c1ccccc1 (single isomer, unassigned) [Example 63, N-[2,4-his (methylthio)-6-methyl-3-pyridyl]-L-(+)-α-phenylthio-phenylacetamide] | < 1000 nM
CC(C)c1cccc(C(C)C)c1NC(=O)C(Sc1ccccc1)c1ccccc1 (single isomer, unassigned) [Example 64] | 1000 to 10000 nM
CCCCCCSC(C(=O)Nc1c(SC)cc(C)nc1SC)c1ccc(Cl)cc1 (stereo not drawn) [Example 85, N-[2,4-bis(methylthio)-6-methyl-3-pyridyl]-α-hexylthio-4-chloro-phenylacetamide] | < 1000 nM
CSc1cc(C)nc(SC)c1NC(=O)C(SCc1ccccc1)c1ccc(Cl)cc1 (stereo not drawn) [Example 89, N-[2,4-bis(methylthio)-6-methyl-3-pyridyl]-α-benzylthio-4-chloro-phenylacetamide] | < 1000 nM
COc1ccc(CSC(C(=O)Nc2c(SC)cc(C)nc2SC)c2ccc(Cl)cc2)cc1 (stereo not drawn) [Example 90, N-[2,4-bis(methylthio)-6-methyl-3-pyridyl]-α-(4-methoxy-benzylthio)-4-chloro-phenylacetamide] | < 1000 nM
CSc1cc(C)nc(SC)c1NC(=O)C(SCc1ccc(F)cc1)c1ccc(Cl)cc1 (stereo not drawn) [Example 91, N-[2,4-bis(methylthio)-6-methyl-3-pyridyl]-α-(4-fluoro-benzylthio)-4-chloro-phenylacetamide] | < 1000 nM
CSc1cc(C)nc(SC)c1NC(=O)C(SCc1ccc(Cl)cc1)c1ccc(Cl)cc1 (stereo not drawn) [Example 92, N-[2,4-bis(methylthio)-6-methyl-3-pyridyl]-α-(4-chloro-benzylthio)-4-chloro-phenylacetamide] | < 1000 nM
CSc1cc(C)nc(SC)c1NC(=O)C(Sc1ccccc1)c1ccc(Cl)cc1 (stereo not drawn) [Example 102, N-[2,4-bis(methylthio)-6-methyl-3-pyridyl]-α-phenylthio-4-chloro-phenylacetamide] | < 1000 nM
COc1ccc(SC(C(=O)Nc2c(SC)cc(C)nc2SC)c2ccc(Cl)cc2)cc1 (stereo not drawn) [Example 103, N-[2,4-bis(methylthio)-6-methyl-3-pyridyl]-α-(4-methoxy-phenylthio)-4-chloro-phenylacetamide] | < 1000 nM
CSc1cc(C)nc(SC)c1NC(=O)C(Sc1ccc(F)cc1)c1ccc(Cl)cc1 (stereo not drawn) [Example 104, N-[2,4-bis(methylthio)-6-methyl-3-pyridyl]-α-(4-fluoro-phenylthio)-4-chloro-phenylacetamide] | < 1000 nM
CCCCCCSC(C(=O)Nc1c(SC)cc(C)nc1SC)c1ccc(OC)cc1 (stereo not drawn) [Example 118, N-[2,4-bis(methylthio)-6-methyl-3-pyridyl]-α-hexylthio-4-methoxy-phenylacetamide] | < 1000 nM
COc1ccc(C(SCc2ccccc2)C(=O)Nc2c(SC)cc(C)nc2SC)cc1 (stereo not drawn) [Example 122, N-[2,4-bis(methylthio)-6-methyl-3-pyridyl]-α-benzylthio-4-methoxy-phenylacetamide] | < 1000 nM
COc1ccc(C(SCc2ccc(Cl)cc2)C(=O)Nc2c(SC)cc(C)nc2SC)cc1 (stereo not drawn) [Example 123, N-[2,4-bis(methylthio)-6-methyl-3-pyridyl]-α-(4-chloro-benzylthio)-4-methoxy-phenylacetamide] | < 1000 nM
COc1ccc(C(SCc2ccc(F)cc2)C(=O)Nc2c(SC)cc(C)nc2SC)cc1 (stereo not drawn) [Example 124, N-[2,4-bis(methylthio)-6-methyl-3-pyridyl]-α-(4-fluoro-benzylthio)-4-methoxy-phenylacetamide] | < 1000 nM
COc1ccc(CSC(C(=O)Nc2c(SC)cc(C)nc2SC)c2ccc(OC)cc2)cc1 (stereo not drawn) [Example 125, N-[2,4-bis(methylthio)-6-methyl-3-pyridyl]-α-(4-methoxy-benzylthio)-4-methoxy-phenylacetamide] | < 1000 nM
COc1ccc(C(Sc2ccccc2)C(=O)Nc2c(SC)cc(C)nc2SC)cc1 (stereo not drawn) [Example 135, N-[2,4-bis(methylthio)-6-methyl-3-pyridyl]-α-phenylthio-4-methoxy-phenylacetamide] | < 1000 nM
COc1ccc(C(Sc2ccc(F)cc2)C(=O)Nc2c(SC)cc(C)nc2SC)cc1 (stereo not drawn) [Example 136, N-[2,4-bis(methylthio)-6-methyl-3-pyridyl]-α-(4-fluoro-phenylthio)-4-methoxy-phenylacetamide] | < 1000 nM
COc1ccc(SC(C(=O)Nc2c(SC)cc(C)nc2SC)c2ccc(OC)cc2)cc1 (stereo not drawn) [Example 137, N-[2,4-bis(methylthio)-6-methyl-3-pyridyl]-α-(4-methoxy-phenylthio)-4-methoxy-phenylacetamide] | < 1000 nM
COc1ccc(C(OC)C(=O)Nc2c(SC)cc(C)nc2SC)cc1 (stereo not drawn) [Example 146, N-[2,4-bis(methylthio)-6-methyl-3-pyridyl]-α-O-methyl-4-methoxymandeloamide] | 1000 to 10000 nM
COc1ccc(C(OC)C(=O)Nc2c(C(C)C)cccc2C(C)C)cc1 (stereo not drawn) [Example 147, N-(2,6-diisopropyl-phenyl)-α-O-methyl-4-methoxymandeloamide] | 1000 to 10000 nM
CCCCCCSC(C(=O)Nc1c(SC)cc(C)nc1SC)c1ccc(F)cc1 (stereo not drawn) [Example 148, N-[2,4-bis(methylthio)-6-methyl-3-pyridyl]-α-hexylthio-4-fluoro-phenylacetamide] | < 1000 nM
CSc1cc(C)nc(SC)c1NC(=O)C(SCc1ccccc1)c1ccc(F)cc1 (stereo not drawn) [Example 152, N-[2,4-bis(methylthio)-6-methyl-3-pyridyl]-α-benzylthio-4-fluoro-phenylacetamide] | < 1000 nM
